Experimental data as given in patent publication US7423068B2, “Control of parasitic mites of honey bees” (The United States of America as represented by the …, priority 2001, dated 2008).
Marks after values point to notes of the source that are not given here.

Assays:
[1] = Diffusion of 2-heptanone from controlled release strip; type: physicochemical; settings: polyurethane core with 60 g 2-heptanone, in 5-frame colony
Description: This test (Trial 3) was carried out in 5-frame colonies as described above except for the following changes. In this test, 2-heptanone was released using a controlled release strip as described in U.S. Pat. No. 5,750,129. In brief, the controlled release strip was composed of a polymer sleeve 20 cm long and 5 cm wide in which a polyurethane core containing 60 g 2-heptanone was sealed. The 2-heptanone strip was placed on the top of the frame (top bar). The controlled diffusion of 2-heptanone through the membrane occurred over a period of 3 weeks. A new 2-heptanone controlled release strip was placed on the top bar after 3 weeks. The Apistan® strip was placed between the frames as described above. The Control comprised no treatment.

Varroa mites = assay: Bulls eye petri dish bioassay for attractiveness; type: in vivo, Varroa jacobsoni; settings: for % of Varroa at distance from Target Source 2.5 cm / % of Varroa at distance from Target Source 3.8 cm / % of Varroa at distance from Target Source 6.3 cm / % of Varroa in Target / % of Varroa at distance from Target Source 1.3 cm / % of Varroa at distance from Target Source 5.1 cm: 0.04 g of 30% 2-heptanone acrylic block
Description: A third bioassay to test for attractiveness of 2-heptanone to Varroa was conducted in petri dishes with a diameter of 13.97 cm and a volume of 76.64 cm^3. The dishes were prepared as described previously in the first bioassay of this Example using 20% gel formulation of 2-heptanone. However, the petri dishes for this bioassay were modified by drilling a hole 1.6 cm in diameter into the center of the dish. This hole was large enough to fit a 1.5 mL Eppendorf® tube which would serve as the dispenser for the 2-heptanone. The lid of each petri dish was labeled in a “bulls eye” fashion with concentric circles at 1.27 cm increments from the center where the Eppendorf® tube was located. The maximum distance from the center was 6.35 cm. The Eppendorf® tube is considered the target. In the treatment dishes, 0.04 g of 2-heptanone in acrylic block formulation (30% concentration) was placed in the Eppendorf® tube and covered with a small amount of sterile cotton. Control dishes were prepared in the same manner as the treatment dishes but the Eppendorf® tubes contained only cotton. Mites (4-5 per dish) were placed in each dish in the area furthest from the center where the Eppendorf® tube was located.
After the dishes were prepared a square section of mosquito netting large enough to cover the top of the petri dish was placed over the dish and secured with a rubber band. The mosquito netting was used instead of a lid on the dish. The mesh of the netting was wide enough to allow the 2-heptanone to volatilize, but prevented the mites from escaping. The marked lids were placed on top of the dishes every 30 minutes to document mite movement. After the measurements were made, the lids were immediately removed.
A fourth test of attractiveness was conducted in the petri dishes that were prepared as described above. In this test 0.06 g of 2-heptanone (30% concentration in acrylic block delivery system) was placed in the center target of the treatment plates. Control plates contained an empty Eppendorf® tube. The mites were placed 3.17 cm from the target. The mites could move closer or farther away from the target. Two treatment and two Control plates with 5 mites each were observed.

[2] = system: wax moth (Galleria mellonella); assay: Control of wax moth in stored frames with drawn comb; type: in vivo; settings: 1, 2 or 3 slow release strips with 60 grams 2-heptanone, after 5 weeks; equipment without 2-heptanone totally infested
From the text: We conducted an experiment where we stored five frames with drawn comb in a nucleus colony box without bees present. In three nucleus colony boxes we placed 1, 2 or 3 strips containing 60 grams of 2-heptanone in a slow release formulation. In a fourth nucleus colony box we placed no 2-heptanone. Within 2 weeks after the start of the experiment, the equipment without 2-heptanone had wax moth adults present between the frames. The adults probably were laying eggs. After 5 weeks, the equipment without 2-heptanone was totally infested with wax moth. There still was no wax moth in any equipment containing 2-heptanone.

[3] = exposure 1 hr, significantly different from Control

For CCCCCC(C)=O [2-Heptanone], the “period of controlled diffusion of 2-heptanone through the membrane” value [1] was 3 weeks, the “% of Varroa at distance from Target Source 2.5 cm” value (Varroa mites; exposure 1 hr) was 7.5% and the “% of Varroa at distance from Target Source 3.8 cm” value (Varroa mites; exposure 1 hr) was 25.0%. The “% of Varroa at distance from Target Source 6.3 cm” value (Varroa mites; exposure 1 hr) was 17.5%, the “% of Varroa in Target” value (Varroa mites; exposure 1 hr) was 0% and the “% of Varroa at distance from Target Source 1.3 cm” value (Varroa mites; [3]) was 27.5* %. The “% of Varroa at distance from Target Source 5.1 cm” value (Varroa mites; [3]) was 16.2* %, the “% of Varroa at distance from Target Source 1.3 cm” value (Varroa mites; exposure 2 hrs) was 32.5% and the “% of Varroa at distance from Target Source 2.5 cm” value (Varroa mites; exposure 2 hrs) was 20.0%. The “% of Varroa at distance from Target Source 3.8 cm” value (Varroa mites; exposure 2 hrs) was 12.5%, the “% of Varroa at distance from Target Source 5.1 cm” value (Varroa mites; exposure 2 hrs) was 15.0% and the “% of Varroa at distance from Target Source 6.3 cm” value (Varroa mites; exposure 2 hrs) was 10.0%. The “% of Varroa in Target” value (Varroa mites; exposure 2 hrs) was 7.5%, the “% of Varroa at distance from Target Source 1.3 cm” value (Varroa mites; exposure 3 hrs) was 45.6% and the “% of Varroa at distance from Target Source 2.5 cm” value (Varroa mites; exposure 3 hrs) was 10.6%. The “% of Varroa at distance from Target Source 3.8 cm” value (Varroa mites; exposure 3 hrs) was 22.5%, the “% of Varroa at distance from Target Source 5.1 cm” value (Varroa mites; exposure 3 hrs) was 12.5% and the “% of Varroa at distance from Target Source 6.3 cm” value (Varroa mites; exposure 3 hrs) was 7.5%. The “% of Varroa in Target” value (Varroa mites; exposure 3 hrs) was 3.1%, the “% of Varroa at distance from Target Source 1.3 cm” value (Varroa mites; exposure 4 hrs) was 42.2% and the “% of Varroa at distance from Target Source 2.5 cm” value (Varroa mites; exposure 4 hrs) was 13.3%. For the same molecule, the “% of Varroa at distance from Target Source 3.8 cm” value (Varroa mites; exposure 4 hrs) was 20.0%, the “% of Varroa at distance from Target Source 5.1 cm” value (Varroa mites; exposure 4 hrs) was 18.8% and the “% of Varroa at distance from Target Source 6.3 cm” value (Varroa mites; exposure 4 hrs) was 5.5%. The “% of Varroa in Target” value (Varroa mites; exposure 4 hrs) was 0%, the “% of mites that moved into the target” value (Varroa mites; fourth test, 0.06 g of 30% 2-heptanone acrylic block, 4 hr. observation, Controls 0.0%) was 9.1% and the “% of mites that moved within 1.27 cm of the target” value (Varroa mites; fourth test, 0.06 g of 30% 2-heptanone acrylic block, mites placed 3.17 cm from target, 4 hr. observation, Controls 6.2%) was 38.4%. The “wax moth infestation of stored equipment” value [2] was “no wax moth”.
